The source of these data is PubChem BioAssay (NCI).

Each structure is given as a SMILES string.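 Results reflect a 48-hour exposure of cells in 96-well plates to compound at five concentrations. GI50 = concentration required for 50% inhibition of growth. At the TGI there is no net growth.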

Among the test systems are COLO 205 colon; HOP-62 NSCLC; HT29 colon; K-562 leukemia; OVCAR-3 ovarian; OVCAR-5 ovarian; SNB-75 CNS; SR leukemia; DU-145 prostate; MDA-MB-231 breast.
What all share (experiment): NCI tumour cell line growth inhibition, 48 h

Turning to `COC(=O)C1=C(c2cc(OC)c(OC)c(OC)c2)O[C@H](c2ccc3c(c2)OCO3)[C@H]1COC(C)=O`, the TGI was 26.3 µM in the test with COLO 205 colon; above 100 µM in the test on HOP-62 NSCLC; 95.7 µM with HT29 colon; 91.8 µM in the test with K-562 leukemia; above 100 µM in the test with OVCAR-3 ovarian; above 100 µM with OVCAR-5 ovarian. The TGI in the test with SNB-75 CNS is above 100 µM; in the test on SR leukemia it was 72.6 µM.
Take `CCOC(=O)/C(C#N)=C(N)/C(=N\Nc1cccc(C(F)(F)F)c1)C(=O)OCC`: the TGI with COLO 205 colon, in the test on HOP-62 NSCLC, with HT29 colon, in the test with OVCAR-3 ovarian, in the test with OVCAR-5 ovarian and with SNB-75 CNS was above 100 µM throughout. The TGI in the test with SR leukemia is above 100 µM.
Turning to `CNC(C)Cc1ccc(O)cc1` (stereo not drawn), the TGI with COLO 205 colon, in the test on HOP-62 NSCLC, in the test on HT29 colon, in the test on K-562 leukemia, in the test on OVCAR-3 ovarian and with OVCAR-5 ovarian was above 100 µM each time. Besides, the TGI in the test with SNB-75 CNS and in the test with SR leukemia was above 100 µM throughout.
In the case of `CC1=NN(C(=O)c2cc(Cl)cc([N+](=O)[O-])c2)C(=O)C1N=Nc1ccccc1C(=O)O` (stereo not drawn), the TGI in the test on COLO 205 colon, in the test with HT29 colon, in the test on K-562 leukemia, with OVCAR-3 ovarian, with OVCAR-5 ovarian and with SNB-75 CNS was above 100 µM throughout. Also, the TGI in the test on SR leukemia is above 100 µM.
In the case of `Cc1cccc(O)c(=O)c1`, the TGI with COLO 205 colon was 37.8 µM; with HOP-62 NSCLC it was above 100 µM; with HT29 colon, above 100 µM; with OVCAR-3 ovarian it was above 100 µM; with OVCAR-5 ovarian it was above 100 µM; with SNB-75 CNS, above 100 µM. In addition, the TGI in the test with SR leukemia was 80.6 µM.
Turning to `O=c1cccccc1NCCNc1cccccc1=O`, the TGI in the test on COLO 205 colon, with HOP-62 NSCLC, in the test on HT29 colon, in the test with K-562 leukemia, in the test on OVCAR-3 ovarian and in the test on OVCAR-5 ovarian was above 100 µM each time. The same compound registered a TGI with SR leukemia above 100 µM.
Turning to `Cc1ccc(SCC(O)=C2C(=O)CCCC2=O)cc1`, the TGI with COLO 205 colon, in the test on HOP-62 NSCLC, with HT29 colon, in the test with K-562 leukemia, in the test on OVCAR-3 ovarian and in the test on OVCAR-5 ovarian was above 100 µM throughout. In addition, the TGI in the test with SNB-75 CNS and in the test on SR leukemia was above 100 µM each time.
Regarding `COc1cc(CNC(=O)CCSc2nc3ccccc3c(=O)n2Cc2cc(OC)c(OC)c(OC)c2)cc(OC)c1OC`, the GI50 with COLO 205 colon is 5.32 µM; with DU-145 prostate it was 7.27 µM; in the test on HOP-62 NSCLC it was 4.36 µM; in the test with MDA-MB-231 breast it was 5.36 µM; in the test with OVCAR-3 ovarian, 4.23 µM; with OVCAR-5 ovarian, 9.38 µM. The GI50 with SNB-75 CNS is 2.06 µM; with SR leukemia, 3.01 µM. Further, the TGI in the test with COLO 205 colon is 23.2 µM; in the test with DU-145 prostate it was above 100 µM; in the test with HOP-62 NSCLC it was 28.7 µM; with MDA-MB-231 breast, 48.3 µM; in the test with OVCAR-3 ovarian, 18.2 µM; in the test with OVCAR-5 ovarian, above 100 µM. For the same compound, the TGI in the test on SNB-75 CNS was 12.9 µM; with SR leukemia, above 100 µM.
As to `CC(=O)OCC(OC(C)=O)C(OC(C)=O)C(OC(C)=O)C(=O)CNn1c(-c2ccccc2Cl)nc2ccc(Br)cc2c1=O` (stereo not drawn), the TGI with COLO 205 colon, in the test on HOP-62 NSCLC, with HT29 colon, in the test with K-562 leukemia, in the test on OVCAR-3 ovarian and with OVCAR-5 ovarian was above 100 µM throughout. For the same compound, the TGI with SNB-75 CNS and in the test with SR leukemia was above 100 µM in each case.
Consider `CN(C)CCNc1c2c(c(NCCN(C)C)c3c(CO)c[nH]c13)C(=O)c1ccccc1C2=O`, for which the GI50 is 2.74 µM in the test on COLO 205 colon; 2.17 µM in the test with DU-145 prostate; 1.02 µM in the test with HOP-62 NSCLC; 1.4 µM in the test with HT29 colon; 3.47 µM with K-562 leukemia; 2.29 µM with MDA-MB-231 breast. In addition, the values for the GI50 in the test with OVCAR-3 ovarian, in the test with OVCAR-5 ovarian and with SNB-75 CNS were 3.91 µM, 12.7 µM and 6.38 µM, respectively. Further, the TGI was above 37.5 µM in the test with COLO 205 colon; 12.7 µM in the test with DU-145 prostate; 7.29 µM in the test on HOP-62 NSCLC; above 23.2 µM in the test with HT29 colon; above 100 µM in the test with K-562 leukemia; 10.7 µM with MDA-MB-231 breast. Also, the results for the TGI with OVCAR-3 ovarian, in the test with OVCAR-5 ovarian and in the test on SNB-75 CNS were 25.1 µM, 33.5 µM and 22.6 µM, respectively.
Regarding `O=C(Nc1ccccc1C(=O)O)C(=O)C(C(=O)c1ccccc1-c1ccccc1)C1OC(=O)c2ccccc21` (stereo not drawn), the TGI in the test with COLO 205 colon was 47.5 µM; in the test on HOP-62 NSCLC, 37.8 µM; in the test on HT29 colon it was 65.9 µM; in the test on K-562 leukemia it was above 100 µM; in the test on OVCAR-3 ovarian, 34.3 µM; in the test with OVCAR-5 ovarian, 42.2 µM. Further, the figures for the TGI with SNB-75 CNS and in the test with SR leukemia were 53.5 µM and 71.1 µM, respectively.
As to `CN/N=C(\C(=O)Nc1ccc([N+](=O)[O-])cc1[N+](=O)[O-])C1NC(=O)NC1=O` (stereo not drawn), the TGI in the test with COLO 205 colon, with HOP-62 NSCLC, in the test on HT29 colon, in the test with K-562 leukemia, in the test with OVCAR-3 ovarian and with OVCAR-5 ovarian was above 100 µM each time. Further, the TGI with SNB-75 CNS and in the test on SR leukemia was above 100 µM each time.
As to `O=C(O)c1oc2cccc3c2c1CCC3`, the TGI in the test with COLO 205 colon, with HOP-62 NSCLC, with HT29 colon, in the test on K-562 leukemia, in the test with OVCAR-3 ovarian and in the test with OVCAR-5 ovarian was above 100 µM in each case. Besides, the TGI with SNB-75 CNS and in the test with SR leukemia was above 100 µM in each case.
